Biological target: T1, catalytic domain of human gelatinase-A (MMP-9) (Homo sapiens, UniProt P14780)
T1 construct: Determination of the Enzymatic Activity of the Catalytic Domain of Human Gelatinase-A (MMP-9); purchased Roche, Mannheim
Experiment: Enzymatic activity of the catalytic domain of human gelatinase (MMP-9), fluorogenic substrate
Assay type: biochemical
Conditions: stated in the text
Protocol: Determination of the Enzymatic Activity of the Catalytic Domain of Human Gelatinase-A (MMP-9)
Activation of the proenzyme:
2 parts by volume of proenzyme were incubated with 1 part by volume of APMA solution at 37° C. for 4 hours. The APMA solution was prepared from a 10 mmol/l p-aminophenylmercuric acetate solution in 0.1 mmol/l NaOH by dilution with 3 parts by volume of Tris/HCl buffer pH 7.5 (see below). The pH was adjusted to between 7.0 and 7.5 by adding 1 mmol/l HCl. After activation of the enzyme it was diluted with the Tris/HCl buffer to a concentration of 4.2 mU/ml.
The enzymic activity was measured by incubating 10 μl of enzyme solution with 10 μl of a 3% strength (v/v) buffered dimethyl sulfoxide solution (reaction 1) for 15 minutes. The enzyme inhibitor activity was measured by incubating 10 μl of enzyme solution with 10 μl of a 3% strength (v/v) buffered dimethyl sulfoxide solution which contained the enzyme inhibitor (reaction 2).
The enzymic reaction both in the case of reaction 1 and in the case of reaction 2 was followed after addition of 10 μl of a 3% strength (v/v) aqueous dimethyl sulfoxide solution which contained 0.15 mmol/l of the substrate by fluorescence spectroscopy (328 nm (extinction)/393 nm (emission)).
The enzymic activity has been presented as increase in extinction/minute.
The effect of the inhibitor was calculated as percentage inhibition by the following formula: % inhibition=100−[(increase in extinction/minute in reaction 2)/(increase in extinction/minute in reaction 1)×100].
The IC50, which is the concentration of inhibitor which is necessary for 50% inhibition of the enzymic activity, was determined graphically by plotting the percentage inhibitions at various inhibitor concentrations.
The buffer solution contained 0.05% Brij (Sigma, Deisenhofen, Germany) and 0.1 mol/l Tris/HCl, 0.1 mol/l NaCl, 0.01 mol/l CaCl2 (pH=7.5). The enzyme solution contained 4.2 mU/ml of the enzyme domain. The substrate solution contained 0.15 mmol/l of the fluorogenic substrate (7-methoxycoumarin-4-yl)acetyl-Pro-Leu-Gly-Leu-3-(2′,4′-dinitrophenyl)-L-2,3-diaminopropionyl-Ala-Arg-NH2 (Bachem, Heidelberg, Germany).

T1 sequence (P14780 107-707 limits assumed): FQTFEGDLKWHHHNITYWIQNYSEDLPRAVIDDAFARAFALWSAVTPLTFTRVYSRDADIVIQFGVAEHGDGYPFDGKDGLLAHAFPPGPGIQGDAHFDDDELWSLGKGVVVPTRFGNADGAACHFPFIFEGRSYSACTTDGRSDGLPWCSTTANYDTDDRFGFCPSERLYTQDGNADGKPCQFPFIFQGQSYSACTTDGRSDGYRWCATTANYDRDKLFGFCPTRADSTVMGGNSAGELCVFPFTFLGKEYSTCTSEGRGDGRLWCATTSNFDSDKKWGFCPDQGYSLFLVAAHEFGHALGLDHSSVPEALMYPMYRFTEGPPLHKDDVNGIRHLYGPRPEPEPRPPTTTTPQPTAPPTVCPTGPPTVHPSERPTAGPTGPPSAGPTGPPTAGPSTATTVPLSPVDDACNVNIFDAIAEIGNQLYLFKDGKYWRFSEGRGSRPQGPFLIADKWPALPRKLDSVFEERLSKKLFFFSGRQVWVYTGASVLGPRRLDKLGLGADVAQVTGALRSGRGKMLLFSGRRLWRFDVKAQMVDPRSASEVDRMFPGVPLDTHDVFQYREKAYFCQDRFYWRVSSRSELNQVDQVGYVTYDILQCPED

COc1ccc(Oc2ccc(S(=O)(=O)N3CCc4ccccc4C3C(=O)NO)cc2)cc1 (centres unmarked)
ratio of MMP1 to MMP9 inhibition: 60

COc1ccc(S(=O)(=O)N2CCc3ccccc3C2C(=O)NO)cc1 (centres unmarked) [reference compound]
ratio of MMP1 to MMP9 inhibition: 3.7

From patent US20070203118A1, “SUBSTITUTED TETRAHYDROISOQUINOLINES USED IN THE FORM OF MMP INHIBITORS, METHOD FOR THE PRODUCTION AND USE THEREOF IN THE FORM OF DRUGS” (SANOFI-AVENTIS DEUTSCHLAND GMBH, priority 2004, published 2007)
